{
  "source": "patent US12465059B2",
  "about": "“Concentrated formic acid composition and its uses thereof” (priority 2018, dated 2025)",
  "origin": "cited, not measured here",
  "key": {"[1]": {"details": "versus Acetic Acid, the second best strongest straight chain Organic Acid"}, "Rat": {"tested_on": "Rat", "details": "oral"}},
  "data": [
    {"smiles": "O=CO", "note": "[Methanoic acid]", "values": [
      {"measurement": "times stronger than Acetic Acid (acid strength)", "setting": "[1]", "value": 10, "unit": "times"}
    ]},
    {"smiles": "[Cl-].[Na+]", "note": "[Sodium Chloride]", "values": [
      {"measurement": "LD 50", "setting": "Rat", "value": 3000, "unit": "mg/kg"}
    ]}
  ]
}
